Test results taken from patent US5225411A, “Disubstituted polymethyleneimines” (priority 1990, dated 1993).

Columns and labels:
[1] = test system: line P 388/ADR 10; experiment: Flow cytometry, increase in fluorescence of ADR on the line P 388/ADR 10; assay type: cell-based, murine; conditions: ADR 50 μM, 5 h
Description: (§1) By measuring that fluorescence it is possible to obtain a relative measurement of the intracellular concentration of ADR.
(§2) […] After 5 hours' incubation, the intracellular uptake of adriamycin was evaluated by FCM.
(§3) The analysis of each of the samples was carried out on a total of 10,000 cells at a speed of 1000 cells/sec.
(§4) The results were presented in the form of linear histograms of the intracellular ADR fluorescence.
(§5) Expression of the Results
(§6) For each of the histograms, the channel mean fluorescence was determined by the apparatus information system. For all experiments:
(§7) A negative control (cells without ADR) fixed the autofluorescence threshold.
(§8) A positive control (cells with ADR) determined the MEAN value=MN1.
(§9) The "test" tubes (cells with ADR and with compound) were used to determine, for each of the compounds and at each of the concentrations, the MEAN values=MN2.
(§10) The results are expressed in the form of variations from the mean fluorescence obtained for each of the "test" tubes (MN2) in relation to the mean fluorescence obtained with the […] (MNl) : VAR-MEAN=MN2 -MN1. The parameter expressed is thus the increase in the fluorescence of adriamycin in the presence of the tested compounds.

[2] = test system: murine leukaemia P 388/ADR 10; experiment: Evaluation of the increase in cytotoxicity of adriamycin on the line P 388/ADR-10 in vitro (reversion factor); assay type: cell-based; conditions: adriamycin, P 388/ADR-10, 48 h, TOX = toxic
Description: In this study, the cytotoxicity of adriamycin was measured in the absence and in the presence of the reversing compound.
The compounds tested for their capacity to reverse MDR are added at the same time as the cytotoxic agent. The cells are then incubated for 48 hours.

[3] = test system: line DC-3F/AD; experiment: Flow cytometry, increase in fluorescence of ADR on the line DC-3F/AD; assay type: cell-based, Chinese Hamster; conditions: ADR 50 μM, 5 h
Description: as §1, §2, §3, §4, §5, §6, §7, §8, §9, §10

[4] = test system: Chinese Hamster Pulmonary Line DC-3F/AD; experiment: Increase in the cytotoxicity of actinomycin D on the Chinese hamster pulmonary line DC-3F/AD; assay type: cell-based; conditions: 4 days;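 also: DC-3F/AD is an extremely resistant cell line whose resistance factor exceeds 10,000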
Description: The cytotoxic agent used was actinomycin D.
Line DC-3F/AD is an extremely resistant line. Its resistance factor is higher than 10,000.

Structure (SMILES)	Increase in fluorescence of ADR (VAR-MEAN = MN2 - MN1) ([1]; compound 2 μM)	Increase in fluorescence of ADR (VAR-MEAN = MN2 - MN1) ([1]; compound 5 μM)	Increase in fluorescence of ADR (VAR-MEAN = MN2 - MN1) ([1]; compound 10 μM)	Increase in fluorescence of ADR (VAR-MEAN = MN2 - MN1) ([1]; compound 20 μM)	Reversion Factor (RF) ([2]; compound 2.5 μM)	Reversion Factor (RF) ([2]; compound 5 μM)	Reversion Factor (RF) ([2]; compound 10 μM)	Increase in fluorescence of ADR (VAR-MEAN = MN2 - MN1) ([3]; compound 2 μM)	Increase in fluorescence of ADR (VAR-MEAN = MN2 - MN1) ([3]; compound 5 μM)	Increase in fluorescence of ADR (VAR-MEAN = MN2 - MN1) ([3]; compound 10 μM)	Increase in fluorescence of ADR (VAR-MEAN = MN2 - MN1) ([3]; compound 20 μM)	Reversion Factor (RF) ([4]; compound 2.5 μM)	Reversion Factor (RF) ([4]; compound 5 μM)	Reversion Factor (RF) ([4]; compound 10 μM)	Reversion Factor (RF) ([4]; compound 20 μM)
C=CCNc1nc(NCCC)nc(N2CCC(NCCC(c3ccccc3)c3ccccc3)CC2)n1 [Example 8, 1-(4-propylamino-6-allylamino-2-s-triazinyl)-4-(3,3diphenylpropylamino)piperidine]	38.9	60.1	TOX	TOX	75.9	TOX	TOX	4.5	17.85	27.15	TOX	16.5	TOX	TOX	TOX
C=CCNc1cc(N2CCC(NCCC(c3ccccc3)c3ccccc3)CC2)nc(NCC=C)n1 [Example 9, 1-(bis-2,4-allylamino-6-pyrimidinyl)-4-(3,3-diphenylpropylamino)piperidine]	39.2	55.8	65.8	TOX	80.4	TOX	TOX	7.2	15.1	16.3	26.2	94	472	TOX	–
C=CCNc1nc(NCC=C)nc(NC2CCN(CC(c3ccccc3)c3ccccc3)CC2)n1 [Example 3, 4-[4,6-bis(allylamino)-2-s-triazinyl]amino-1-(2,2diphenylethyl)piperidine]	29.9	46.2	66.0	73.1	39	70	134.8	8.0	19.9	21.6	19.3	38	104	240	–
CCCCc1oc2ccccc2c1C(=O)c1cc(I)c(OCCN(CC)CC)c(I)c1 [AMIODARONE, reference compound]	33.40	65.25	76.33	95.85	37.7	104.7	TOX	8.80	16.65	21.55	26.35	–	298	388	TOX
C=CCNc1nc(NCC=C)nc(N2CCC(NCC(c3ccccc3)c3ccccc3)CC2)n1 [Example 5, 1-[4,6-bis(allylamino)-2-s-triazinyl]-4-(2,2-diphenylethylamino)piperidine]	45.25	60.7	79.47	76.25	100	189	277.4	15.5	31.3	34.65	37.9	–	658	1504	TOX
C=CCNc1nc(NCC=C)nc(N2CCC(NCC(c3cc(OC)cc(OC)c3)c3ccccc3C)CC2)n1 (centres unmarked) [Example 10, 1-[4,6-bis(allylamino)-2-s-triazinyl]-4-[2-(3,5-dimethoxyphenyl)-2-(2-methylphenyl)ethylamino]piperidine]	52.0	75.3	84.0	78.0	125.1	75.3	TOX	14.8	24.7	26.5	28.2	259	1347	TOX	–
C=CCNc1nc(NCC=C)nc(N2CCC(NCCC(c3ccccc3)c3ccccc3)CC2)n1 [Example 6, 1-[4,6-bis(allylamino)-2-s-triazinyl]-4-(3,3-diphenylpropylamino)-piperidine]	32.9	60.1	55.8	TOX	54.4	TOX	TOX	3.9	21.5	29.75	TOX	< 16.5	220	TOX	TOX
C=CCNc1nc(NCCC)nc(N2CCC(NCC(c3ccccc3)c3ccccc3)CC2)n1 [Example 7, 1-(4-propylamino-6-allylamino-2-s-triazinyl)-4-(2,2-diphenylethylamino)piperidine]	48.75	72.6	80.9	87.3	102.8	135.6	TOX	14.47	26.0	34.17	36.63	–	992	2339	–
C=CCNc1nc(NCCC)nc(NC2CCN(CC(c3ccccc3)c3ccccc3)CC2)n1 [Example 11, 4-(4-allylamino-6-propylamino-2-s-triazinylamino)-1-(2,2-diphenylethyl)piperidine]	–	–	–	–	87	65.2	TOX	12.6	18.9	29.9	40.5	–	281	926	–
